From PubChem BioAssay AID2060611 (Molecular Pharmacology Branch, DTP, NCI, 2025)

System: 628569-122-R-J1-PDC complex spheroid viability
Experiment: Anticancer human tumor 628569-122-R-J1-PDC patient-derived head and neck squamous carcinoma cell line growth inhibition [CLK]
Details: for IC50: curve of first compound; for viability, T/C: stronger effect = lower value
How it was run: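 Multi-cell-type spheroids combined patient-derived tumor cells with HUVEC endothelial cells and human mesenchymal stem cells. Paired agents were dosed in half-log steps down from about clinical Cmax, or from 10 microM where Cmax was unknown.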
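Note: spheroids exposed to agents for seven days before readout.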
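Throughout, for viability, T/C: 100% = DMSO vehicle control viability.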

Compound `Cn1ncnc1[C@H]1c2n[nH]c(=O)c3cc(F)cc(c23)N[C@@H]1c1ccc(F)cc1` + CNC(=O)c1ccc(Nc2nc(OC3CCCC3)c3c(-c4ccc5nc(C)oc5c4)c[nH]c3n2)c(OC)c1 has an IC50 (second compound 0.0316 µM) of over 100 nM, an IC50 (second compound 0.1 µM) of 37.6 nM and an IC50 (second compound 0.316 µM) of 1.53 nM. For the same compound, the IC50 (second compound 1 µM) was under 0.316 nM, the IC50 (second compound 3.16 µM) was under 0.316 nM and the IC50 (second compound 10 µM) was under 0.316 nM. For the same compound, the viability, T/C (second compound 0.0316 µM, first compound 0.000316 µM) was 86.7%, the viability, T/C (second compound 0.0316 µM, first compound 0.001 µM) was 90.1% and the viability, T/C (second compound 0.0316 µM, first compound 0.00316 µM) was 82.7%. It also gave a viability, T/C (second compound 0.0316 µM, first compound 0.01 µM) of 71.3%, a viability, T/C (second compound 0.0316 µM, first compound 0.0316 µM) of 78% and a viability, T/C (second compound 0.0316 µM, first compound 0.1 µM) of 64.9%. The viability, T/C (second compound 0.1 µM, first compound 0.000316 µM) was 61.4%, the viability, T/C (second compound 0.1 µM, first compound 0.001 µM) was 53.4% and the viability, T/C (second compound 0.1 µM, first compound 0.00316 µM) was 60.1%. For the same compound, the viability, T/C (second compound 0.1 µM, first compound 0.01 µM) was 53.7%, the viability, T/C (second compound 0.1 µM, first compound 0.0316 µM) was 51% and the viability, T/C (second compound 0.1 µM, first compound 0.1 µM) was 45.9%. It also gave a viability, T/C (second compound 0.316 µM, first compound 0.000316 µM) of 47.7%, a viability, T/C (second compound 0.316 µM, first compound 0.001 µM) of 48.4% and a viability, T/C (second compound 0.316 µM, first compound 0.00316 µM) of 51.9%. The viability, T/C (second compound 0.316 µM, first compound 0.01 µM) was 54.4%, the viability, T/C (second compound 0.316 µM, first compound 0.0316 µM) was 54.5% and the viability, T/C (second compound 0.316 µM, first compound 0.1 µM) was 39.6%. The viability, T/C (second compound 1 µM, first compound 0.000316 µM) was 43.9%, the viability, T/C (second compound 1 µM, first compound 0.001 µM) was 39.5% and the viability, T/C (second compound 1 µM, first compound 0.00316 µM) was 48.1%. It also gave a viability, T/C (second compound 1 µM, first compound 0.01 µM) of 39%, a viability, T/C (second compound 1 µM, first compound 0.0316 µM) of 40.1% and a viability, T/C (second compound 1 µM, first compound 0.1 µM) of 40.2%. For the same compound, the viability, T/C (second compound 3.16 µM, first compound 0.000316 µM) was 37.5%, the viability, T/C (second compound 3.16 µM, first compound 0.001 µM) was 45.5% and the viability, T/C (second compound 3.16 µM, first compound 0.00316 µM) was 48.5%. It also gave a viability, T/C (second compound 3.16 µM, first compound 0.01 µM) of 41.5%, a viability, T/C (second compound 3.16 µM, first compound 0.0316 µM) of 37.7% and a viability, T/C (second compound 3.16 µM, first compound 0.1 µM) of 34.3%. For the same compound, the viability, T/C (second compound 10 µM, first compound 0.000316 µM) was 47.4%, the viability, T/C (second compound 10 µM, first compound 0.001 µM) was 39.6% and the viability, T/C (second compound 10 µM, first compound 0.00316 µM) was 41.4%. It also gave a viability, T/C (second compound 10 µM, first compound 0.01 µM) of 36.7%, a viability, T/C (second compound 10 µM, first compound 0.0316 µM) of 38% and a viability, T/C (second compound 10 µM, first compound 0.1 µM) of 31.3%.
